Laboratory results published in PubChem BioAssay (NCI).
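Briefly, cells in 96-well plates were exposed to five compound concentrations for 48 h, and endpoints were estimated by linear interpolation. Here, GI50 denotes the concentration required for 50% inhibition of growth. TGI denotes the concentration required for complete inhibition of growth.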

Tests used:
Assay in all cases: NCI anticancer screen, dose series, 48 h
[1] = tested on: 786-0 renal
[2] = tested on: A498 renal
[3] = tested on: A549 NSCLC
[4] = tested on: ACHN renal
[5] = tested on: BT-549 breast
[6] = tested on: CAKI-1 renal
[7] = tested on: CCRF-CEM leukemia
[8] = tested on: COLO 205 colon
[9] = tested on: DU-145 prostate
[10] = tested on: EKVX NSCLC
[11] = tested on: HCC-2998 colon
[12] = tested on: HCT-116 colon
[13] = tested on: HCT-15 colon
[14] = tested on: HL-60(TB) leukemia
[15] = tested on: HOP-62 NSCLC
[16] = tested on: HOP-92 NSCLC
[17] = tested on: HS 578T breast
[18] = tested on: HT29 colon
[19] = tested on: IGROV1 ovarian
[20] = tested on: K-562 leukemia
[21] = tested on: KM12 colon
[22] = tested on: LOX IMVI melanoma
[23] = tested on: MALME-3M melanoma
[24] = tested on: MCF7 breast
[25] = tested on: MDA-MB-231 breast
[26] = tested on: MDA-MB-435
[27] = tested on: MOLT-4 leukemia
[28] = tested on: NCI-H226 lung
[29] = tested on: NCI-H23 lung
[30] = tested on: NCI-H460 lung
[31] = tested on: NCI-H522 lung
[32] = tested on: NCI/ADR-RES ovarian
[33] = tested on: OVCAR-3 ovarian
[34] = tested on: OVCAR-4 ovarian
[35] = tested on: OVCAR-5 ovarian
[36] = tested on: OVCAR-8 ovarian
[37] = tested on: RPMI-8226 leukemia
[38] = tested on: RXF 393 renal
[39] = tested on: SF-268 CNS
[40] = tested on: SF-295 CNS
[41] = tested on: SF-539 CNS
[42] = tested on: SK-MEL-2 melanoma
[43] = tested on: SK-MEL-28 melanoma
[44] = tested on: SK-MEL-5 melanoma
[45] = tested on: SK-OV-3 ovarian
[46] = tested on: SN12C renal
[47] = tested on: SNB-19 CNS
[48] = tested on: SNB-75 CNS
[49] = tested on: SR leukemia
[50] = tested on: SW-620 colon
[51] = tested on: T-47D breast
[52] = tested on: TK-10 renal
[53] = tested on: U251 CNS
[54] = tested on: UACC-257 melanoma
[55] = tested on: UACC-62 melanoma
[56] = tested on: UO-31 renal
[57] = tested on: M14 melanoma
[58] = tested on: PC-3 prostate

Compound: Clc1ccc(-c2cc(-c3ccccc3)nc(NCCNc3ccnc4cc(Cl)ccc34)n2)cc1
- GI50 [1]: 1.67 µM
- TGI [1]: 3.41 µM
- GI50 [2]: 1.64 µM
- TGI [2]: 3.31 µM
- GI50 [3]: 1.71 µM
- TGI [3]: 3.45 µM
- GI50 [4]: 1.72 µM
- TGI [4]: 3.24 µM
- GI50 [5]: 1.68 µM
- TGI [5]: 3.25 µM
- GI50 [6]: 1.47 µM
- TGI [6]: 2.93 µM
- GI50 [7]: 2.14 µM
- TGI [7]: 5.56 µM
- GI50 [8]: 1.68 µM
- TGI [8]: 3.66 µM
- GI50 [9]: 1.82 µM
- TGI [9]: 3.31 µM
- GI50 [10]: 1.6 µM
- TGI [10]: 3.34 µM
- GI50 [11]: 1.85 µM
- TGI [11]: 3.56 µM
- GI50 [12]: 1.65 µM
- TGI [12]: 3.41 µM
- GI50 [13]: 1.63 µM
- TGI [13]: 3.25 µM
- GI50 [14]: 1.85 µM
- TGI [14]: 3.76 µM
- GI50 [15]: 1.68 µM
- TGI [15]: 3.48 µM
- GI50 [16]: 1.32 µM
- TGI [16]: 2.8 µM
- GI50 [17]: 1.88 µM
- TGI [17]: 4.19 µM
- GI50 [18]: 1.67 µM
- TGI [18]: 3.26 µM
- GI50 [19]: 1.6 µM
- TGI [19]: 3.27 µM
- GI50 [20]: 1.62 µM
- TGI [20]: 3.53 µM
- GI50 [21]: 1.81 µM
- TGI [21]: 3.46 µM
- GI50 [22]: 1.89 µM
- TGI [22]: 3.7 µM
- GI50 [23]: 1.71 µM
- TGI [23]: 3.3 µM
- GI50 [24]: 1.72 µM
- TGI [24]: 3.73 µM
- GI50 [25]: 1.88 µM
- TGI [25]: 3.57 µM
- GI50 [26]: 1.77 µM
- TGI [26]: 3.27 µM
- GI50 [27]: 1.89 µM
- TGI [27]: 4.19 µM
- GI50 [28]: 1.57 µM
- TGI [28]: 3.68 µM
- GI50 [29]: 1.76 µM
- TGI [29]: 3.6 µM
- GI50 [30]: 1.95 µM
- TGI [30]: 3.85 µM
- GI50 [31]: 1.81 µM
- TGI [31]: 3.78 µM
- GI50 [32]: 1.66 µM
- TGI [32]: 3.4 µM
- GI50 [33]: 1.77 µM
- TGI [33]: 3.36 µM
- GI50 [34]: 1.79 µM
- TGI [34]: 3.83 µM
- GI50 [35]: 1.67 µM
- TGI [35]: 3.06 µM
- GI50 [36]: 1.91 µM
- TGI [36]: 4.1 µM
- GI50 [37]: 2.03 µM
- TGI [37]: 4.54 µM
- GI50 [38]: 1.19 µM
- TGI [38]: 2.8 µM
- GI50 [39]: 1.81 µM
- TGI [39]: 3.8 µM
- GI50 [40]: 1.8 µM
- TGI [40]: 3.52 µM
- GI50 [41]: 1.72 µM
- TGI [41]: 3.34 µM
- GI50 [42]: 1.73 µM
- TGI [42]: 3.23 µM
- GI50 [43]: 1.7 µM
- TGI [43]: 3.19 µM
- GI50 [44]: 1.74 µM
- TGI [44]: 3.2 µM
- GI50 [45]: 1.71 µM
- TGI [45]: 3.29 µM
- GI50 [46]: 1.74 µM
- TGI [46]: 3.28 µM
- GI50 [47]: 1.72 µM
- TGI [47]: 3.59 µM
- GI50 [48]: 1.58 µM
- TGI [48]: 3.08 µM
- GI50 [49]: 1.59 µM
- TGI [49]: 4.56 µM
- GI50 [50]: 1.7 µM
- TGI [50]: 3.48 µM
- GI50 [51]: 1.54 µM
- TGI [51]: 3.45 µM
- GI50 [52]: 1.8 µM
- TGI [52]: 3.42 µM
- GI50 [53]: 1.72 µM
- TGI [53]: 3.37 µM
- GI50 [54]: 2 µM
- TGI [54]: 4.09 µM
- GI50 [55]: 1.84 µM
- TGI [55]: 3.37 µM
- GI50 [56]: 1.38 µM
- TGI [56]: 2.86 µM

Compound: O=C1OCC2=C1C(c1ccc(Cl)c(Cl)c1)c1cc3c(cc1N2CCO)CCC3 (stereo unspecified)
- GI50 [1]: 0.242 µM
- TGI [1]: 10.2 µM
- GI50 [2]: 0.0919 µM
- TGI [2]: 1.37 µM
- GI50 [3]: 0.195 µM
- TGI [3]: 8.04 µM
- GI50 [4]: 0.371 µM
- TGI [4]: 12.2 µM
- GI50 [5]: 1.35 µM
- TGI [5]: 10.9 µM
- GI50 [6]: 0.145 µM
- TGI [6]: 7.89 µM
- GI50 [7]: 0.257 µM
- TGI [7]: 13.6 µM
- GI50 [8]: 0.175 µM
- TGI [8]: 0.702 µM
- GI50 [9]: 0.203 µM
- TGI [9]: 6.56 µM
- GI50 [10]: 0.435 µM
- TGI [10]: 15.6 µM
- GI50 [11]: 0.418 µM
- TGI [11]: 4.29 µM
- GI50 [12]: 0.234 µM
- TGI [12]: 6.59 µM
- GI50 [13]: 0.215 µM
- TGI [13]: 20.3 µM
- GI50 [14]: 0.172 µM
- TGI [14]: 1.54 µM
- GI50 [15]: 0.229 µM
- TGI [15]: 9.26 µM
- GI50 [17]: 0.232 µM
- TGI [17]: 14.3 µM
- GI50 [18]: 0.164 µM
- TGI [18]: 0.646 µM
- GI50 [19]: 0.555 µM
- TGI [19]: 17.8 µM
- GI50 [20]: 0.204 µM
- TGI [20]: 9.71 µM
- GI50 [21]: 0.181 µM
- TGI [21]: 6.57 µM
- GI50 [22]: 0.303 µM
- TGI [22]: 10.3 µM
- GI50 [57]: 0.2 µM
- TGI [57]: 6.53 µM
- GI50 [23]: 0.193 µM
- TGI [23]: 16.4 µM
- GI50 [24]: 0.157 µM
- TGI [24]: 7.2 µM
- GI50 [25]: 0.747 µM
- TGI [25]: 9.36 µM
- GI50 [26]: 0.0611 µM
- TGI [26]: 0.183 µM
- GI50 [27]: 0.628 µM
- TGI [27]: 27.8 µM
- GI50 [28]: 0.248 µM
- TGI [28]: 6.47 µM
- GI50 [29]: 0.239 µM
- TGI [29]: 12.2 µM
- GI50 [30]: 0.186 µM
- TGI [30]: 6.03 µM
- GI50 [31]: 0.11 µM
- TGI [31]: 0.371 µM
- GI50 [32]: 0.123 µM
- TGI [32]: 2.3 µM
- GI50 [33]: 0.145 µM
- TGI [33]: 0.509 µM
- GI50 [34]: 0.326 µM
- TGI [34]: 21.4 µM
- GI50 [35]: 0.336 µM
- TGI [35]: 15.3 µM
- GI50 [36]: 0.221 µM
- TGI [36]: 8.27 µM
- GI50 [58]: 0.163 µM
- TGI [58]: 8.76 µM
- GI50 [37]: 0.237 µM
- TGI [37]: 15.1 µM
- GI50 [38]: 0.141 µM
- TGI [38]: 1.46 µM
- GI50 [39]: 0.343 µM
- TGI [39]: 9.34 µM
- GI50 [40]: 0.108 µM
- TGI [40]: 1.5 µM
- GI50 [41]: 0.147 µM
- TGI [41]: 3.32 µM
- GI50 [42]: 0.192 µM
- TGI [42]: 6.89 µM
- GI50 [43]: 0.323 µM
- TGI [43]: 11.7 µM
- GI50 [44]: 0.181 µM
- TGI [44]: 7.22 µM
- GI50 [45]: 0.211 µM
- TGI [45]: 6 µM
- GI50 [46]: 0.398 µM
- TGI [46]: 8.91 µM
- GI50 [47]: 0.324 µM
- TGI [47]: 15.2 µM
- GI50 [48]: 0.134 µM
- TGI [48]: 11.7 µM
- GI50 [49]: 0.348 µM
- TGI [49]: 16.2 µM
- GI50 [50]: 0.166 µM
- TGI [50]: 10.7 µM
- GI50 [51]: 0.25 µM
- TGI [51]: 20.6 µM
- GI50 [52]: 0.312 µM
- TGI [52]: 13.2 µM
- GI50 [53]: 0.181 µM
- TGI [53]: 6.29 µM
- GI50 [54]: 0.151 µM
- TGI [54]: 15.7 µM
- GI50 [55]: 0.215 µM
- TGI [55]: 8.6 µM
- GI50 [56]: 0.237 µM
- TGI [56]: 21.2 µM
